Test results reported in US20200222323A1, “ADRENALIN-CONTAINING DOUBLE LAYERED LIPID VESICLES FOR USE IN THE TREATMENT OF CARDIAC EMERGENCIES” (UNIVERSITÀ DEGLI STUDI DI CAGLIARI, priority 2017, published 2020).

Key:
[1] = control solution, same conditions, PBS pH 7.4, 37° C.
Experimental: The in vitro studies on the release of adrenaline from the liposomal formulations were conducted with a modified dialysis technique or by means of a “sample and separate” method.
In the former case, a cellulose membrane (Spectra/Por®: cut-off 12-14 kDa MW, pore size 3 nm, Spectrum Laboratories Inc., USA) was positioned between the two compartments of a Franz vertical diffusion cell (Rofarma, Milan). The receptor compartment, with a capacity of 6.5 ml and a diffusion area of 0.636 cm2, was filled with a phosphate buffer solution (PBS pH 7.4) containing sodium metabisulphite (0.053 M), stirred constantly by a small magnetic stirrer at a controlled temperature of 37° C. for the whole duration of the experiment.
At 1-hour time intervals, for the 8 hours of the experiment, 1 ml of the solution in the receptor compartment was removed and restored with fresh buffer. The amount of adrenaline contained in the samples removed was analysed by HPLC.
Use was made of an XTerra C18 column (3.5 μiη, 4.6×150 mm, Waters), with a mobile phase composed of 86.5% water, 13.45% acetonitrile and 0.05% acetic acid (v/v) at a flow rate of 0.8 ml/min. A calibration curve was constructed using standard solutions (100-1 ng/μl), having a correlation coefficient (R2) of 0.999.

[2] = cited from earlier work
[3] = system: human umbilical vein endothelial cells (HUVECs); conditions: HUVEC, 5 hours treatment, adrenaline 3-120 μg/ml, MTT
Experimental: The biocompatibility of the formulation was tested on human umbilical vein endothelial cells (HUVECs) obtained from a pool of healthy donors (Promocell, Germany). The cells were cultured in Endothelial Cell Growth Medium 2 (ECGM 2, Promocell) enriched with penicillin (50 units/ml) and streptomycin (50 mg/ml), and maintained in an incubator with a humidified atmosphere, CO2 (5%) at 37° C. The cells were seeded in 96-well plates 24 hours before the treatment with liposomes (density 4×10^4 cells/well). […] At the end of the treatment, the medium was removed and replaced with 100 μl of a solution of 3-(4,5-dimethylthiazol-2-yl)-2,5-diphenyltetrazolium bromide (MTT) in PBS (0.5 mg/ml). After 4 hours of incubation at 37° C., the MTT was removed and 100 μl of dimethyl sulphoxide (DMSO) was added in each well. Absorbance was measured at 570 nm by means of a Synergy 4 plate reader (BioTek, Winooski, Vt., USA). The results are expressed as a percentage of viable cells compared to the untreated cells.

total amount of drug released after the 8 hours of the experiment [1]: 70±3%
SMILES: CNCC(O)c1ccc(O)c(O)c1 (stereo not drawn) [adrenaline]
half-life in vivo [2]: ≤ 5 min
viability of treated versus untreated cells [3]: no significant difference
